For this test, the target named is T1, Toll-like receptor 7 (Homo sapiens, UniProt Q9NYK1).
T1 sequence (Q9NYK1 whole entry): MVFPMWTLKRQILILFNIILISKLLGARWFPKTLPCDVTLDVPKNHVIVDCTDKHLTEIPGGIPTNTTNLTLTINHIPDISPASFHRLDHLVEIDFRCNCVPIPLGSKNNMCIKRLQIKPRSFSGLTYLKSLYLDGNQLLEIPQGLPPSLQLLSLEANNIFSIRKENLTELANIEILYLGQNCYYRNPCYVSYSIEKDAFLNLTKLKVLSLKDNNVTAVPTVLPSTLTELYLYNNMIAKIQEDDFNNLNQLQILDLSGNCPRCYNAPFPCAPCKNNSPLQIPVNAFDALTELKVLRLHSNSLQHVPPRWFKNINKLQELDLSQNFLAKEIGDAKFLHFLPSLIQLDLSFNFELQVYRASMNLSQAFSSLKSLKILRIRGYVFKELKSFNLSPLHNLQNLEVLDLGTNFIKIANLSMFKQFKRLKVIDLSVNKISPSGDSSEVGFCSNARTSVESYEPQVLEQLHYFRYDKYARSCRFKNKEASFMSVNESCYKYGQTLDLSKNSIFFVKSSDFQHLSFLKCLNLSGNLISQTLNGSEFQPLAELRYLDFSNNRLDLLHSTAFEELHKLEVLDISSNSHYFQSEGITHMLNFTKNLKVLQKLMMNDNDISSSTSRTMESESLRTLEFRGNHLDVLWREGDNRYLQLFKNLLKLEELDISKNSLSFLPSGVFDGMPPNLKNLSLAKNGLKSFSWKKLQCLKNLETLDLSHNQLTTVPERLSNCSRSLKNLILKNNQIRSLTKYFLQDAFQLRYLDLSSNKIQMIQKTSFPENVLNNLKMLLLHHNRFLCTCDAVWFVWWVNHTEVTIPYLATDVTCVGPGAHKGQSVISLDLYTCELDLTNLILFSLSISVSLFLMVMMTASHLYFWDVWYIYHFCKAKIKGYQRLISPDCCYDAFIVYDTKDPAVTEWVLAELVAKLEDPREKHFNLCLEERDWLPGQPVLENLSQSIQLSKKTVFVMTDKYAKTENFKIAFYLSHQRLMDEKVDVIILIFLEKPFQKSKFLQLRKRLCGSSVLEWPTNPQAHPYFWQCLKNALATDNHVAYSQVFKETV
The experiment in a line: HEK-Blue™ TLR7 cells were added to each well of a 384-well tissue-culture plate (15,000 cells per well) and incubated 16-18 h at 37° C., 5% CO2. Compounds (100 nl) were dispensed into wells containing the HEK-Blue™ TLR cells and the treated cells were incubated at 37° C., 5% CO2. After 18 h treatment ten microliters of freshly-prepared Quanti-Blue™ reagent (Invivogen) was added to each well, incubated for 30 min (37° C., 5% CO2) and SEAP levels measured using an Envision plate reader (OD=620 nm).
One may read the EC50 as the concentration that produces a half-maximal response. `CCCCOc1nc(N)c2nc(O)n(Cc3cccc(Oc4cccc(CNC5CCC5)c4)c3)c2n1` displayed a half-maximal effective concentration (EC50) of 435 nM.

The molecule `CCCCOc1nc(N)c2nc(O)n(Cc3ccc(Oc4ccc(CN5CCC5)cc4)c(F)c3)c2n1` gave an EC50 of 1.12 nM.

`CCCCOc1nc(N)c2nc(O)n(Cc3ccc(Oc4ccc(CNCC(C)C)nc4)nc3)c2n1`: the EC50 was determined as 2.22 nM. This EC50 is about 2-fold higher than that of the molecule before.

Turning to `CCCCOc1nc(N)c2nc(O)n(Cc3ccc(Oc4cccc(CNCC(C)C)n4)cc3)c2n1`, the EC50 came out at 2.4 nM.

`CCCCOc1nc(N)c2nc(O)n(Cc3ccc(Oc4ccc(CNCC(C)C)cc4)c(F)c3)c2n1` displayed an EC50 of 0.45 nM.

`CCCCOc1nc(N)c2nc(O)n(Cc3ccc(Nc4ccc(CN5CCCC5)cc4)nc3)c2n1` came in with an EC50 of 1.56 nM.

`CCCCOc1nc(N)c2nc(O)n(Cc3ccc(Oc4ccc(CO)cc4)nc3)c2n1`: the concentration giving a half-maximal response (EC50) came out at 12 nM.

For `CCCCOc1nc(N)c2nc(O)n(Cc3ccc(Oc4ccc(CNC5CCOCC5)nc4)nc3)c2n1`, the EC50 was 1.12 nM.

In turn, `CCCCOc1nc(N)c2nc(O)n(Cc3ccc(Oc4ccc(CNC)cc4)nc3)c2n1` came in with an EC50 of 1.2 nM.

Take `CCCCOc1nc(N)c2nc(O)n(Cc3ccc(Oc4ccc(CNC5CCOCC5)cc4)c(F)c3)c2n1`: the EC50 stood at 1.2 nM.

`CCCCOc1nc(N)c2nc(O)n(Cc3ccc(Oc4ccc(CNCCC#N)cc4)nc3)c2n1` had an EC50 of 0.35 nM. This EC50 is about 3.4-fold lower than that of the molecule before.

Molecule `CCCCOc1nc(N)c2nc(O)n(Cc3ccc(Oc4ccc(CNCCOC)cc4)c(F)c3)c2n1` registered an EC50 of 1.14 nM.

`CCCCOc1nc(N)c2nc(O)n(Cc3ccc(Oc4cccc(CNCCC#N)n4)cc3)c2n1` showed an EC50 of 3.57 nM.

Molecule `CCCCOc1nc(N)c2nc(O)n(Cc3ccc(Oc4ccc(CNCCO)nc4)nc3)c2n1` came in with an EC50 of 1.6 nM.

In turn, `CCCCOc1nc(N)c2nc(O)n(Cc3ccc(Oc4ccc(CNC5CCC5)cc4)nc3)c2n1` returned an EC50 of 0.91 nM.

Consider `CCCCOc1nc(N)c2nc(O)n(Cc3ccc(Oc4ccc(CN5CCN(C)CC5)nc4)nc3)c2n1`, for which a half-maximal effect (EC50) was put at 1.77 nM. Compared with the last molecule, the EC50 is about 1.9-fold higher.

Molecule `CCCCOc1nc(N)c2nc(O)n(Cc3ccc(Oc4ccc(CNCC(F)F)cc4)nc3)c2n1` returned an EC50 of 2.9 nM.

For the molecule `CCCCOc1nc(N)c2nc(O)n(Cc3cccc(Oc4cccc(CNC)c4)c3)c2n1`, the EC50 is 455 nM.

`CCCCOc1nc(N)c2nc(O)n(Cc3ccc(Oc4ccc(CNCC(F)F)nc4)nc3)c2n1` gave an EC50 of 1.8 nM.

As for `CCCCOc1nc(N)c2nc(O)n(Cc3cccc(Oc4cccc(CNCCC#N)c4)c3)c2n1`, the EC50 stood at 279 nM.

Molecule `CCCCOc1nc(N)c2nc(O)n(Cc3ccc(Oc4ccc(CNCc5ccccc5)cc4)cc3)c2n1` came in with an EC50 of 13 nM.

`CCCCOc1nc(N)c2nc(O)n(Cc3cccc(Oc4cccc(CN5CCNCC5)c4)c3)c2n1` showed an EC50 of 942 nM. This EC50 is about 72-fold higher than that of the molecule before.

Regarding `CCCCOc1nc(N)c2nc(O)n(Cc3cccc(Oc4cccc(CNCCS(C)(=O)=O)c4)c3)c2n1`, the 50% effective concentration (EC50) came to 154 nM.

In the case of `CCCCOc1nc(N)c2nc(O)n(Cc3ccc(Nc4ccc(CNCC(F)F)cc4)nc3)c2n1`, a half-maximal response (EC50) required 7.46 nM.

`CCCCOc1nc(N)c2nc(O)n(Cc3ccc(Oc4ccc(CN5CCN(C)CC5)cc4)c(F)c3)c2n1` showed an EC50 of 2.9 nM.

As to `CCCCOc1nc(N)c2nc(O)n(Cc3ccc(Oc4ccc(CN5CCOCC5)nc4)nc3)c2n1`, the EC50 is 0.89 nM.

In turn, `CCCCOc1nc(N)c2nc(O)n(Cc3ccc(Nc4ccc(CNCCO)cc4)nc3)c2n1` showed an EC50 of 5.8 nM.

Molecule `CCCCOc1nc(N)c2nc(O)n(Cc3ccc(Oc4ccc(CNC5COC5)cc4)nc3)c2n1` showed an EC50 of 0.7 nM.

For the molecule `CCCCOc1nc(N)c2nc(O)n(Cc3ccc(Oc4ccc(CNC5CCCC5)cc4)nc3)c2n1`, the EC50 came to 1.6 nM.

`CCCCOc1nc(N)c2nc(O)n(Cc3ccc(Oc4ccc(CNC5COC5)cc4)cc3)c2n1` gave an EC50 of 1.7 nM. The EC50 values of the last two molecules are within 1.5-fold of each other.

Molecule `CCCCOc1nc(N)c2nc(O)n(Cc3ccc(Nc4ccc(CNCCS(C)(=O)=O)cc4)nc3)c2n1` yielded a half-maximal effective concentration (EC50) of 0.374 nM. This EC50 lies about 4.5-fold lower than the previous one.

The molecule `CCCCOc1nc(N)c2nc(O)n(Cc3ccc(Oc4ccc(CN5CCOCC5)cc4)c(F)c3)c2n1` displayed an EC50 of 3.9 nM.

For `CCCCOc1nc(N)c2nc(O)n(Cc3cccc(Oc4cccc(CNC5COC5)c4)c3)c2n1`, it took 403 nM to reach a half-maximal effect (EC50).

Molecule `CCCCOc1nc(N)c2nc(O)n(Cc3cccc(Oc4cccc(CNC5CC(F)(F)C5)c4)c3)c2n1` registered an EC50 of 525 nM. This EC50 and that of the molecule before are within 1.5-fold of each other.

`CCCCOc1nc(N)c2nc(O)n(Cc3ccc(Oc4ccc(CNC5CC(F)(F)C5)cc4)nc3)c2n1` came in with an EC50 of 1.3 nM. This EC50 lies about 400-fold lower than the previous one.

Turning to `CCCCOc1nc(N)c2nc(O)n(Cc3ccc(Oc4ccc(CNCc5ccccc5)cc4)nc3)c2n1`, the midpoint of the response, the EC50, lay at 5.3 nM.

The molecule `CCCCOc1nc(N)c2nc(O)n(Cc3ccc(Oc4ccc(CNC5CC5)cc4)cc3)c2n1` had an EC50 of 2.1 nM. Compared with the last molecule, the EC50 is about 2.5-fold lower.

As to `CCCCOc1nc(N)c2nc(O)n(Cc3ccc(Oc4ccc(CNCCS(C)(=O)=O)cc4)nc3)c2n1`, the EC50 amounted to 1.8 nM.

As for `CCCCOc1nc(N)c2nc(O)n(Cc3ccc(Oc4cccc(CNC5CCC5)n4)cc3)c2n1`, the EC50 was determined as 2.51 nM.

The molecule `CCCCOc1nc(N)c2nc(O)n(Cc3ccc(Oc4ccc(CNC(C)C)cc4)nc3)c2n1` came in with an EC50 of 1.1 nM. Against the preceding molecule, the EC50 is about 2.3-fold lower.

The molecule `CCCCOc1nc(N)c2nc(O)n(Cc3ccc(Oc4ccc(CNCCO)cc4)cc3)c2n1` returned an EC50 of 1.4 nM.

For `CCCCOc1nc(N)c2nc(O)n(Cc3ccc(Nc4ccc(CNCC(C)(C)O)cc4)nc3)c2n1`, the EC50 is 3.2 nM. Against the preceding molecule, the EC50 is about 2.3-fold higher.

On to `CCCCOc1nc(N)c2nc(O)n(Cc3ccc(Nc4ccc(CNCC(C)C)cc4)nc3)c2n1`, for which the EC50 was 7.5 nM. Against the preceding molecule, the EC50 is about 2.3-fold higher.

For `CCCCOc1nc(N)c2nc(O)n(Cc3ccc(Nc4ccc(CNCCOC)cc4)nc3)c2n1`, the EC50 stood at 1.19 nM.

As for `CCCCOc1nc(N)c2nc(O)n(Cc3cccc(Oc4cccc(CNCCO)c4)c3)c2n1`, the EC50 came out at 375 nM.

As to `CCCCOc1nc(N)c2nc(O)n(Cc3ccc(Nc4ccc(CNC5CCC5)cc4)nc3)c2n1`, the response was half-maximal at 1.23 nM (EC50).

In turn, `CCCCOc1nc(N)c2nc(O)n(Cc3ccc(Nc4ccc(CNC5CCOCC5)cc4)nc3)c2n1` gave an EC50 of 4.3 nM.

`CCCCOc1nc(N)c2nc(O)n(Cc3ccc(Oc4ccc(CNCC5CC5)cc4)nc3)c2n1` showed an EC50 of 1.1 nM.

Regarding `CCCCOc1nc(N)c2nc(O)n(Cc3ccc(Oc4ccc(CNC5CCC5)cc4)c(F)c3)c2n1`, a half-maximal response (EC50) required 1.38 nM.

Take `CCCCOc1nc(N)c2nc(O)n(Cc3ccc(Oc4ccc(CNC5C6CC5C6)cc4)nc3)c2n1` (stereo not drawn): the half-maximal effective concentration (EC50) came out at 1.3 nM.

The molecule `CCCCOc1nc(N)c2nc(O)n(Cc3ccc(Oc4ccc(CNCC(C)C)cc4)nc3)c2n1` yielded an EC50 of 0.54 nM.

The molecule `CCCCOc1nc(N)c2nc(O)n(Cc3ccc(Nc4ccc(CN5CCN(C)CC5)cc4)nc3)c2n1` returned an EC50 of 4.2 nM.

`CCCCOc1nc(N)c2nc(O)n(Cc3ccc(Oc4ccc(CNCCOC)nc4)nc3)c2n1` displayed an EC50 of 0.96 nM. This EC50 is about 4.4-fold lower than that of the molecule before.

The molecule `CCCCOc1nc(N)c2nc(O)n(Cc3ccc(Oc4ccc(CNCCO)cc4)c(F)c3)c2n1` registered an EC50 of 0.46 nM.

The molecule `CCCCOc1nc(N)c2nc(O)n(Cc3ccc(Oc4cccc(CNC5COC5)n4)cc3)c2n1` had an EC50 of 4.27 nM.

For `CCCCOc1nc(N)c2nc(O)n(Cc3ccc(Oc4ccc(CNC5CCC5)nc4)nc3)c2n1`, the EC50 came to 2.07 nM.

`CCCCOc1nc(N)c2nc(O)n(Cc3ccc(Oc4ccc(CNC5CCC5)cc4)cc3)c2n1` yielded an EC50 of 2.6 nM.

As for `CCCCOc1nc(N)c2nc(O)n(Cc3ccc(Oc4ccc(CNCC(F)F)cc4)c(F)c3)c2n1`, the EC50 is 1.8 nM.

The values are drawn from ChEMBL document CHEMBL5727449, “Toll-like receptor 7 (TLR7) agonists having heteroatom-linked aromatic moieties, conjugates thereof, and methods and uses therefor” (2019).
